Results from ChEMBL document CHEMBL1795230, “Conformational variability of different sulfonamide inhibitors with thienyl-acetamido moieties attributes to differential binding in the active site of cytosolic human carbonic anhydrase isoforms” (Bioorg Med Chem, 2011).

Legend:
Carbonic anhydrase 3 = Carbonic anhydrase 3 (Homo sapiens, UniProt P07451)
Carbonic anhydrase 13 = Carbonic anhydrase 13 (Homo sapiens, UniProt Q8N1Q1)
Carbonic anhydrase 13, sequence (Q8N1Q1 whole entry): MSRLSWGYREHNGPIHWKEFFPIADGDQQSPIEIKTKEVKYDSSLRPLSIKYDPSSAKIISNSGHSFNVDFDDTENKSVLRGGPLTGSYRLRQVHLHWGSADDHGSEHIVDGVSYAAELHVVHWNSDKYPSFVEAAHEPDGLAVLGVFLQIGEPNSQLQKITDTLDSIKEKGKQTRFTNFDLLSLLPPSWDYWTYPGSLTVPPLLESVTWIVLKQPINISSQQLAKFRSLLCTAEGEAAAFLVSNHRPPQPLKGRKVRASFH

Carbonic anhydrase 3, sequence (P07451 whole entry): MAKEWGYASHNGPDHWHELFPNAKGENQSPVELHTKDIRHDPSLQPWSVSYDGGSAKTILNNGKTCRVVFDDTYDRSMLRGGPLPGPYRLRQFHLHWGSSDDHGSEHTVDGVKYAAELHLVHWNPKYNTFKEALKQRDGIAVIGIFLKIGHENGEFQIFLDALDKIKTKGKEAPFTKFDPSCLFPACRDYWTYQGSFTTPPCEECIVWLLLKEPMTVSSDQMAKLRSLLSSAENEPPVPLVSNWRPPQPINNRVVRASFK

## NS(=O)(=O)c1ccc(NC(=O)Cc2cccs2)cc1
Carbonic anhydrase 3
  Ki: 800000 nM
Carbonic anhydrase 13
  Ki: 125 nM

## NS(=O)(=O)c1cc(Cl)c(Cl)c(S(N)(=O)=O)c1 [DICHLORPHENAMIDE]
Carbonic anhydrase 13
  Ki: 23 nM
